Reference: PubChem BioAssay AID1117319 (Southern Research Institute, 2015)
Records with an inconclusive call do not appear.

These compounds were tested against Virion infectivity factor (Human immunodeficiency virus type 1 group M subtype B (isolate BH10)) + Virion infectivity factor (Human immunodeficiency virus type 1 group M subtype B (isolate BRU/LAI)) + Virion infectivity factor (Human immunodeficiency virus type 1 group M subtype B (isolate PCV12)) + Virion infectivity factor (Human immunodeficiency virus type 1 group M subtype B (isolate HXB2)) + DNA dC->dU-editing enzyme APOBEC-3G (Homo sapiens) (UniProt P69720+P69721+P69722+P69723+Q9HC16) (assay: inhibitors of Vif binding to APOBEC3G peptide, primary screen, biochemical, TR-FRET, GST-Vif 1-94, biotin-A3G peptide, dose response retest (AID 1117319);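 further: Vif residues 1-94 fused to GST binding biotinylated APOBEC3G peptide 110-148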).
For `NS(=O)(=O)c1ccc(N=Nc2c[nH]c(=O)c(O)c2)cc1`, the IC50 was 4.08 µM. For `COc1cc(/C=C2/C(=O)c3cccc([N+](=O)[O-])c3C2=O)c(Br)cc1O`, the IC50 was 32.2 µM. Compound `O=C(Nc1ccccc1-c1nnn(CC(=O)N2CCc3ccccc3C2)n1)C1CCC1` has an IC50 of 91 µM. Work on `CCOc1ccc(-n2c(=O)c3c(C)c(C)sc3n(CC(=O)NCc3ccco3)c2=O)cc1` yielded an IC50 of 74.9 µM. In the case of `COC(=O)C1=C(O)/C(=C\c2ccc(CNC(=O)C(=O)Nc3ccc(C)cc3)o2)N=C1C`, the IC50 is reported as 24.1 µM. For `CC(/C=N/n1c(-c2ccncc2)n[nH]c1=S)=C\c1ccco1`, the IC50 was 5.1 µM. Compound `O=c1cc(-c2ccccc2Cl)c2c([nH]1)CCC2` has an IC50 of 4.31 µM. With `CCOc1ccccc1C(O)C1=CC(=O)c2ccccc2C1=O` (stereo not drawn) the IC50 was 7.61 µM. In the case of `COc1ccc(-n2c(C)cc(C(=O)CSc3nn4c(=O)c(C(C)(C)C)nnc4s3)c2C)cc1`, the IC50 is reported as 10.3 µM. Compound `O=c1c2cc(N3CCOCC3)ccc2[nH]c(=S)n1Cc1ccco1` has an IC50 of 7.24 µM. `Cc1cc(C)c([N+](=O)[O-])cc1-c1ccc(/C=N/c2c(-c3ccco3)nc3ccccn23)o1` showed an IC50 of 42.4 µM. `Cc1noc(C)c1S(=O)(=O)Nc1ccc2c(c1)C(=O)N([C@@H](C)CO)C[C@H](C)[C@@H](CN(C)Cc1ccc(C(F)(F)F)cc1)OCCCC[C@H](C)O2` was tested, and the IC50 was 96 µM. Compound `O=[N+]([O-])c1cc(CN2CCN(c3cccc(C(F)(F)F)c3)CC2)c2cccnc2c1O` has an IC50 of 8.68 µM. For `O=C(NC1CCCC1)c1ccc2nc(-c3ccco3)c(-c3ccco3)nc2c1`, the IC50 was 0.3 µM. Compound `O=C1CCC/C(=N\NC(=O)c2ccc(COc3cccc4cccnc34)cc2)C1` has an IC50 of 17.1 µM. `C[C@H]1c2cccc(O)c2C(O)=C2C(=O)[C@]3(O)C(O)=C(C(N)=O)C(=O)[C@@H](N(C)C)[C@@H]3[C@@H](O)[C@@H]21` was tested, and the IC50 was 13.6 µM. With `N#Cc1c(-c2ccco2)c2c([nH]c1=S)CCCC2` the IC50 was 12.1 µM. Work on `N#Cc1ccc(CSc2nnc(Cc3cccs3)n2Cc2ccco2)cc1` yielded an IC50 of 46.5 µM. `COC(=O)CCCC(=O)Nc1c(F)c(F)c(F)c(F)c1F` was tested, and the IC50 was 24.3 µM. `C=CCn1c(N2CCCCCC2)nc2c1c(=O)[nH]c(=O)n2C` gave an IC50 of 30.1 µM. With `CCOc1ccc(N(CC(=O)NC(C)(C)C)S(=O)(=O)c2c(C)noc2C)cc1` the IC50 was 5.1 µM. For `CCOc1ccc(CNc2ccc(N3CCCC3)cc2)cc1`, the IC50 was 6.59 µM. In the case of `CN(C)c1ccc(NC(=O)Cn2cc3c(n2)CCCC3)cc1`, the IC50 is reported as 6.08 µM. For `O=C1CC(=O)N(Cc2ccco2)C(=O)N1`, the IC50 was 4.49 µM. `CCOC(=O)C(C)N1C(=O)S/C(=C\c2ccc(-c3ccccc3C(=O)O)o2)C1=O` (stereo not drawn) gave an IC50 of 10.8 µM. `Cc1ccc(-n2nc(C)c(C3C(C#N)=C(N)Oc4c3c(=O)oc3ccccc43)c2Cl)cc1` (stereo not drawn) showed an IC50 of 11.1 µM. Compound `O=C(NCc1ccccc1)c1ccc2nc(-c3ccco3)c(-c3ccco3)nc2c1` has an IC50 of 0.48 µM. `CCN1C(=O)/C(=C\c2ccco2)C(C(=O)OC)=C1C` gave an IC50 of 23 µM. With `O=C(O)C[C@@H]1C(=O)O[C@@H]2C(COC(=O)c3cc(O)c(O)c(O)c3)O[C@@H](OC(=O)c3cc(O)c(O)c(O)c3)[C@@H](OC(=O)c3cc(O)c(O)c4c3[C@H]1[C@H](O)C(=O)O4)[C@H]2OC(=O)c1cc(O)c(O)c(O)c1` (stereo partly drawn) the IC50 was less than 0.195 µM. In the case of `COc1ccc(C2CC(=O)N3CN(c4ccc(C)c(Cl)c4)CSC3=C2C#N)cc1` (stereo not drawn), the IC50 is reported as 81.2 µM. With `CN(C)N1C(N)=C(C#N)C(c2cccnc2)C2=C1CCCC2=O` (stereo not drawn) the IC50 was 11.4 µM. `Cc1c(NC(=O)c2cc(-c3cccs3)on2)c(=O)n(-c2ccccc2)n1C` gave an IC50 of 39.9 µM. For `Cc1c(NC(=O)CN2CCN(c3ccc(O)cc3)CC2)c(=O)n(-c2ccccc2)n1C`, the IC50 was 10.2 µM. `Cc1ccc(N2C(=O)/C(=C/c3ccc(CN(CCC#N)S(C)(=O)=O)o3)C(=O)NC2=S)cc1` showed an IC50 of 8.32 µM. In the case of `CCOC(=O)c1cc2cc(F)ccc2nc1C`, the IC50 is reported as 1.65 µM. `CC1OC(OCC2OC(Oc3c(-c4ccc(O)cc4)oc4cc(O)cc(O)c4c3=O)C(O)C(O)C2O)C(O)C(O)C1O` (stereo not drawn) showed an IC50 of 11.8 µM. Work on `CCN(CC)S(=O)(=O)c1cccc(C(=O)N/N=C/c2ccc(O)c(O)c2O)c1` yielded an IC50 of 3.48 µM. `CCCn1cnc2cc(NCc3ccccn3)ccc21` gave an IC50 of 28.6 µM. Work on `C=C(C)C(=O)Nc1ccc2c(c1)OCCOCCOCCO2` yielded an IC50 of 1.89 µM. For `O=C(COC(=O)/C=C/c1ccco1)Nc1ncc(C(F)(F)F)cc1Cl`, the IC50 was 12.7 µM. In the case of `O=C1/C(=C/c2ccco2)Oc2c1ccc(O)c2CN1CCCCC1`, the IC50 is reported as 1.36 µM. `FC(F)(F)C1=Nc2cccc3cccc(c23)N1` gave an IC50 of 5.95 µM. Work on `CCc1ccc(NC(=O)CCNS(=O)(=O)c2cccc3nonc23)cc1` yielded an IC50 of 53 µM. In the case of `Cc1ccc(-c2c3c([nH]c(=S)c2C#N)CCCC3)o1`, the IC50 is reported as 13.9 µM. `O=C(O)C1Nc2c(O)cc(Cl)c([N+](=O)[O-])c2C2C=CCC12` (stereo not drawn) gave an IC50 of 0.23 µM. Compound `COC1=CC(=O)C(C2CC(=O)c3c(O)cc(O)cc3O2)=CC1=O` (stereo not drawn) has an IC50 of 15 µM. Compound `O=C(O)c1cccc(-n2cccc2/C=C/[N+](=O)[O-])c1` has an IC50 of 5.49 µM. `O=C1/C(=C\c2ccco2)SC(=S)N1c1ccccc1` was tested, and the IC50 was 2.58 µM. `C=CC1=C(C(=O)O)N2C(=O)C(NC(=O)Cc3ccccc3)C2SC1` (stereo not drawn) gave an IC50 of 11.5 µM. In the case of `COc1ccc(NS(=O)(=O)c2cccc(C(=O)NNC(=O)c3cccn3C)c2)cc1`, the IC50 is reported as 12.7 µM. `COC(=O)CCC(=O)OC1(C)C(=O)C2=CN(CCCOC(C)C)C(c3ccc(OC)cc3)=CC2=C(Br)C1=O` (stereo not drawn) gave an IC50 of 11.5 µM. `NC(=S)N=Nc1c(O)cc(O)c2[nH]c(=O)ccc12` gave an IC50 of 8.04 µM. `COc1ccc(/C=C(\NC(=O)c2ccc(OCC(C)C)cc2)C(=O)OCc2ccco2)cc1` showed an IC50 of 32.7 µM.
